According to patent publication US10065990B2, “Cyclic peptide compound, and preparation method, pharmaceutical composition and use thereof” (HANGZHOU GUANYU BIO-MEDICAL CO., LTD, priority 2013, dated 2018):
Where two headings read alike, the source gives them in different places.

Key:
[1] = test system: lncap (prostate cancer cells); assay: MTT cancer cell growth inhibition; type: cell-based; conditions: MTT, 72 hours incubation, read-out: GI50 lnca
Summary of the method: (§1)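 Read-out was formazan absorbance at 570 nm after a 4 h MTT step and DMSO solubilisation, converted to cell viability and fitted for GI50. Beforehand, cells (1500/well, overnight attachment) were treated with compound at 10^−5 to 10^−10 M for 72 h at 37° C.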

[2] = test system: HT1080 (human fibrosarcoma cells); assay: MTT cancer cell growth inhibition; type: cell-based; conditions: MTT, 72 hours incubation, read-out: GI50 HT1
Summary of the method: as §1

[3] = test system: H1975 (non-small cell lung adenocarcinoma); assay: MTT cancer cell growth inhibition; type: cell-based; conditions: MTT, 72 hours incubation, H1975 cells, read-out: GI50 H1975
Summary of the method: as §1

[4] = test system: Bel-7402 (human hepatoma cells); assay: MTT cancer cell growth inhibition; type: cell-based; conditions: MTT, 72 hours incubation, Bel-7402 cells, read-out: GI50 Bel-7402
Summary of the method: as §1

[5] = test system: DU145 (human prostate cancer cells); assay: MTT cancer cell growth inhibition; type: cell-based; conditions: MTT, 72 hours incubation, read-out: GI50 Du1
Summary of the method: as §1

[6] = test system: Huh-7 (human hepatoma cells); assay: MTT cancer cell growth inhibition; type: cell-based; conditions: MTT, 72 hours incubation, Huh-7 cells, read-out: GI50 Huh-7
Summary of the method: as §1

[7] = test system: PANC-1 (Pac-1, human pancreatic cancer cells); assay: MTT cancer cell growth inhibition; type: cell-based; conditions: MTT, 72 hours incubation, read-out: GI50 PAN
Summary of the method: as §1

[8] = test system: KBM5-T315I (human chronic myelogenous leukemia); assay: MTT cancer cell growth inhibition; type: cell-based; conditions: MTT, 72 hours incubation, KBM5-T315I cells, read-out: GI50 KBM5-T315I
Summary of the method: as §1

[9] = test system: SGC-7901 (human gastric cancer cells); assay: MTT cancer cell growth inhibition; type: cell-based; conditions: MTT, 72 hours incubation, SGC-7901 cells, read-out: GI50 SGC-7901
Summary of the method: as §1

[10] = test system: KBM-5 (human chronic myelogenous leukemia); assay: MTT cancer cell growth inhibition; type: cell-based; conditions: MTT, 72 hours incubation, KBM-5 cells, read-out: GI50 KBM-5
Summary of the method: as §1

[11] = test system: U937 (human leukemia cells); assay: MTT cancer cell growth inhibition; type: cell-based; conditions: MTT, 72 hours incubation, read-out: GI50 U93
Summary of the method: as §1

[12] = test system: Hela (human cervical cancer cells); assay: MTT cancer cell growth inhibition; type: cell-based; conditions: MTT, 72 hours incubation, read-out: GI50 Hela
Summary of the method: as §1

[13] = test system: N-87 (human gastric cancer cells); assay: MTT cancer cell growth inhibition; type: cell-based; conditions: MTT, 72 hours incubation, N-87 cells, read-out: GI50 N-87
Summary of the method: as §1

[14] = test system: BGC-823 (human gastric cancer cells); assay: MTT cancer cell growth inhibition; type: cell-based; conditions: MTT, 72 hours incubation, read-out: GI50 BG
Summary of the method: as §1

[15] = test system: K562 (human leukemia cells); assay: MTT cancer cell growth inhibition; type: cell-based; conditions: MTT, 72 hours incubation, K562 cells, read-out: GI50 K562
Summary of the method: as §1

[16] = test system: A549 (human lung cancer cells); assay: MTT cancer cell growth inhibition; type: cell-based; conditions: MTT, 72 hours incubation, read-out: GI50 A54
Summary of the method: as §1

[17] = test system: MDA-MB-231 (breast cancer cells); assay: MTT cancer cell growth inhibition; type: cell-based
Summary of the method: as §1

[18] = test system: MCF-7 (human breast cancer cells); assay: MTT cancer cell growth inhibition; type: cell-based; conditions: 72 hours incubation, read-out: GI50 MCF
Summary of the method: as §1

[19] = test system: MOLT-4 (human acute lymphoblastic leukemia cells); assay: MTT cancer cell growth inhibition; type: cell-based; conditions: MTT, 72 hours incubation, read-out: GI50 Mol
Summary of the method: as §1

[20] = test system: HCC827 (human non-small cell lung cancer cells); assay: MTT cancer cell growth inhibition; type: cell-based; conditions: MTT, 72 hours incubation, HCC827 cells, read-out: GI50 HCC827
Summary of the method: as §1

[21] = target: T1, HDAC7 (Homo sapiens, UniProt Q8WUI4); assay: HDAC biochemical activity measurement (fluorescent substrate deacetylation);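 as to all read-outs here: fluorogenic deacetylation assay using acetyl-lysine substrate at 20 µM, enzyme and compound incubated 30 min at 37 °C, then developer added, fluorescence read at 360/460 nm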; conditions: for IC50 HDAC7: 37° C. 30 minutes
T1 sequence (Q8WUI4 1-952): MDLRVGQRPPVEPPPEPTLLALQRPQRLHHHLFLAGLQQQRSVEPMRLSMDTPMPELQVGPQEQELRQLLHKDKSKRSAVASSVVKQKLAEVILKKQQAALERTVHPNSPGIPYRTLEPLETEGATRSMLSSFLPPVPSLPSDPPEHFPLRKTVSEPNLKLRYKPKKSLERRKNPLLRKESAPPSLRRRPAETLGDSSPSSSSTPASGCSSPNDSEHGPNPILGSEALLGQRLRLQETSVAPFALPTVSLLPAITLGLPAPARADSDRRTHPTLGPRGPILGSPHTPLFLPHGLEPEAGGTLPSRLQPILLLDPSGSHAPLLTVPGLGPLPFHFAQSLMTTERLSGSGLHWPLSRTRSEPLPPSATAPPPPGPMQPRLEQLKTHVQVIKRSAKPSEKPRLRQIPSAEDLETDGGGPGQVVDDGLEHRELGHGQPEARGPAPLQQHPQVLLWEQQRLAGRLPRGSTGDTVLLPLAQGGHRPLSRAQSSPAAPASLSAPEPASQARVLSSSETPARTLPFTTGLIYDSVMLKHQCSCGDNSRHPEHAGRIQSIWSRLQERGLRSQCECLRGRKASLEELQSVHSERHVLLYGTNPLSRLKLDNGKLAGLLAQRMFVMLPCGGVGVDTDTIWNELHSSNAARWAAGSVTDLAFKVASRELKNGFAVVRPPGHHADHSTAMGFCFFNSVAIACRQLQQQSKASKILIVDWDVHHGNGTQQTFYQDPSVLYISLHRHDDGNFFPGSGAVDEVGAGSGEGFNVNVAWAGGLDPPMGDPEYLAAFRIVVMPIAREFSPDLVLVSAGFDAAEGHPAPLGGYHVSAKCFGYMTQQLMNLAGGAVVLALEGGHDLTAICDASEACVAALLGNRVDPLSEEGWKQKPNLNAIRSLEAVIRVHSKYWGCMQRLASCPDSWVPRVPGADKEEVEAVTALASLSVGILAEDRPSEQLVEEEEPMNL

[22] = Homo sapiens, LNCaP, 72 h, lncap cells
[23] = Homo sapiens, HT-1080, 72 h, HT1080 cells
[24] = Homo sapiens, DU-145, 72 h, DU145 cells
[25] = Homo sapiens, PANC-1, 72 h, PANC-1 cells
[26] = Homo sapiens, U-937, 72 h, U937 cells
[27] = Homo sapiens, HeLa, 72 h, Hela cells
[28] = Homo sapiens, BGC-823, 72 h, BGC-823 cells
[29] = Homo sapiens, A549, 72 h, A549 cells
[30] = Homo sapiens, MDA-MB-231, 72 h, read-out: GI50 MDA-MB-231, MTT, 72 hours incubation, MDA-MB-231 cells
[31] = Homo sapiens, MCF7, 72 h, MCF-7 cells
[32] = Homo sapiens, MOLT-4, 72 h, MOLT-4 cells

Row | Compound | GI50 [1, 22] | GI50 [2, 23] | GI50 ([3]; Homo sapiens, NCI-H1975, 72 h) | GI50 ([4]; Homo sapiens, Bel-7402, 72 h) | GI50 [5, 24] | GI50 ([6]; Homo sapiens, Huh-7, 72 h) | GI50 [7, 25] | GI50 ([8]; Homo sapiens, 72 h) | GI50 ([9]; Homo sapiens, SGC-7901, 72 h) | GI50 ([10]; Homo sapiens, KBM5, 72 h) | GI50 [11, 26] | GI50 [12, 27] | GI50 ([13]; Homo sapiens, 72 h) | GI50 [14, 28] | GI50 ([15]; Homo sapiens, K562, 72 h) | GI50 [16, 29] | GI50 [17, 30] | GI50 [18, 31] | GI50 ([20]; Homo sapiens, HCC827, 72 h) | IC50 HDAC7 [21] | further results
1 | C/C=C1\NC(=O)c2ccc(SCC)c(n2)CNC(=O)C[C@@H](/C=C/CCSC(=O)CCCCC)OC(=O)[C@H](C(C)C)NC1=O [Compound 255] | 50 nM | 60 nM | 68 nM | 35 nM | 40 nM | 45 nM | 40 nM | 37 nM | 48 nM | 32 nM | 20 nM | 10 nM | 51 nM | 30 nM | 56 nM | 30 nM | 23 nM | 80 nM | 57 nM |  | GI50 [19, 32]: 50 nM; IC50 (μM) HDAC7 [21]: no activity
2 | C/C=C1\NC(=O)c2ccc(SC)c(n2)CNC(=O)C[C@@H](/C=C/CCSC(C)=O)OC(=O)[C@H](C(C)C)NC1=O [Compound 209] |  |  |  |  |  |  |  |  |  |  |  |  |  |  |  |  |  |  |  | no activity | GI50 ([1]; lncap cells): 20 nM; GI50 ([2]; HT1080 cells): 30 nM; GI50 [3]: 17 nM; GI50 [4]: 13 nM; GI50 ([5]; DU145 cells): 70 nM; GI50 [6]: 23 nM; GI50 ([7]; PANC-1 cells): 20 nM; GI50 [8]: 31 nM; GI50 [9]: 41 nM; GI50 [10]: 46 nM; GI50 ([11]; U937 cells): 30 nM; GI50 ([12]; Hela cells): 90 nM; GI50 [13]: 51 nM; GI50 ([14]; BGC-823 cells): 40 nM; GI50 [15]: 39 nM; GI50 ([16]; A549 cells): 20 nM; GI50 ([17]; read-out: GI50 MDA-MB-231, MTT, 72 hours incubation, MDA-MB-231 cells): 35 nM; GI50 ([18]; MCF-7 cells): 20 nM; GI50 ([19]; MOLT-4 cells): 70 nM; GI50 [20]: 85 nM

Further compounds by falling GI50 ([3]; Homo sapiens, NCI-H1975, 72 h), results first:

Row | GI50 [1, 22] | GI50 [2, 23] | GI50 ([3]; Homo sapiens, NCI-H1975, 72 h) | GI50 ([4]; Homo sapiens, Bel-7402, 72 h) | GI50 [5, 24] | GI50 ([6]; Homo sapiens, Huh-7, 72 h) | GI50 [7, 25] | GI50 ([8]; Homo sapiens, 72 h) | GI50 ([9]; Homo sapiens, SGC-7901, 72 h) | GI50 ([10]; Homo sapiens, KBM5, 72 h) | GI50 [11, 26] | GI50 [12, 27] | GI50 ([13]; Homo sapiens, 72 h) | GI50 [14, 28] | GI50 ([15]; Homo sapiens, K562, 72 h) | GI50 [16, 29] | GI50 [17, 30] | GI50 [18, 31] | GI50 ([20]; Homo sapiens, HCC827, 72 h) | IC50 HDAC7 [21] | Compound | further results
3 |  |  | 53 nM | 93 nM |  | 37 nM |  | 69 nM | 53 nM | 81 nM |  |  | 42 nM |  | 43 nM |  | 37 nM |  | 93 nM | no activity | C/C=C1\NC(=O)c2ccc(F)c(n2)CNC(=O)C[C@@H](/C=C/CCSC(=O)CCCCCCC)OC(=O)[C@H](CC)NC1=O [Example 56] | GI50 ([1]; Homo sapiens, LNCaP, 72 h): 30 nM; GI50 ([2]; Homo sapiens, HT-1080, 72 h): 90 nM; GI50 ([5]; Homo sapiens, DU-145, 72 h): 40 nM; GI50 ([7]; Homo sapiens, PANC-1, 72 h): 90 nM; GI50 ([11]; Homo sapiens, U-937, 72 h): 50 nM; GI50 ([12]; Homo sapiens, HeLa, 72 h): 80 nM; GI50 ([14]; Homo sapiens, BGC-823, 72 h): 40 nM; GI50 ([16]; Homo sapiens, A549, 72 h): 50 nM; GI50 ([18]; Homo sapiens, MCF7, 72 h): 60 nM; GI50 ([19]; Homo sapiens, MOLT-4, 72 h): 30 nM
4 | 40 nM | 90 nM | 38 nM | 53 nM | 50 nM | 47 nM | 40 nM | 71 nM | 12 nM | 29 nM | 40 nM | 40 nM | 63 nM | 40 nM | 28 nM | 40 nM | 53 nM | 50 nM | 75 nM | no activity | C/C=C1\NC(=O)c2cc(SC)cc(n2)CNC(=O)C[C@@H](/C=C/CCSC(=O)CCCCC)OC(=O)[C@H](C(C)C)NC1=O [Compound 154] | GI50 [19, 32]: 90 nM
5 |  |  | 33 nM | 76 nM |  | 43 nM |  | 24 nM | 36 nM | 11 nM |  |  | 34 nM |  | 59 nM |  | 49 nM |  | 93 nM | no activity | C/C=C1\NC(=O)c2ccc(F)c(n2)CNC(=O)C[C@@H](/C=C/CCS)OC(=O)[C@H](C(C)C)NC1=O [Compound 108] | GI50 ([1]; Homo sapiens, LNCaP, 72 h): 20 nM; GI50 ([2]; Homo sapiens, HT-1080, 72 h): 80 nM; GI50 ([5]; Homo sapiens, DU-145, 72 h): 20 nM; GI50 ([7]; Homo sapiens, PANC-1, 72 h): 80 nM; GI50 ([11]; Homo sapiens, U-937, 72 h): 30 nM; GI50 ([12]; Homo sapiens, HeLa, 72 h): 70 nM; GI50 ([14]; Homo sapiens, BGC-823, 72 h): 20 nM; GI50 ([16]; Homo sapiens, A549, 72 h): 40 nM; GI50 ([18]; Homo sapiens, MCF7, 72 h): 30 nM; GI50 ([19]; Homo sapiens, MOLT-4, 72 h): 20 nM
